Data published in ChEMBL document CHEMBL1201861, “Genomics of Drug Sensitity in Cancer screening data, Wellcome Trust Sanger Institute”.

Tests used:
Assay in all cases: cells
[1] = system: COLO-741; type: functional, cell-based; settings: Homo sapiens
Description: SANGER: Inhibition of human COLO-741 cell growth in a cell viability assay.

[2] = system: COR-L105; type: functional, cell-based; settings: Homo sapiens;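 also: cell growth inhibition determined with a viability assay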
Description: SANGER: Inhibition of human COR-L105 cell growth in a cell viability assay.

[3] = system: Ca9-22; type: functional, cell-based; settings: Homo sapiens;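 also: growth inhibition of Ca9-22 cells, read out with a cell viability assay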
Description: SANGER: Inhibition of human Ca9-22 cell growth in a cell viability assay.

[4] = system: Capan-2; type: functional, cell-based; settings: Homo sapiens;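 also: Capan-2 cell growth inhibition, read out with a viability assay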
Description: SANGER: Inhibition of human Capan-2 cell growth in a cell viability assay.

[5] = system: ChaGo-K-1; type: functional, cell-based; settings: Homo sapiens;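 also: growth inhibition of ChaGo-K-1 cells, read out with a cell viability assay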
Description: SANGER: Inhibition of human ChaGo-K-1 cell growth in a cell viability assay.

[6] = system: D-336MG; type: functional, cell-based; settings: Homo sapiens
Description: SANGER: Inhibition of human D-336MG cell growth in a cell viability assay.

[7] = system: DBTRG-05MG; type: functional, cell-based; settings: Homo sapiens;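 also: cell viability assay measuring growth inhibition of human DBTRG-05MG cells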
Description: SANGER: Inhibition of human DBTRG-05MG cell growth in a cell viability assay.

[8] = system: FaDu; type: functional, cell-based; settings: Homo sapiens;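 also: cell viability readout of growth inhibition in FaDu cells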
Description: SANGER: Inhibition of human FADU cell growth in a cell viability assay.

[9] = system: FTC-133; type: functional, cell-based; settings: Homo sapiens
[10] = system: GAMG; type: functional, cell-based; settings: Homo sapiens;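 also: cell growth inhibition measured by a viability assay in the GAMG human cell line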
Description: SANGER: Inhibition of human GAMG cell growth in a cell viability assay.

[11] = system: GCT; type: functional, cell-based; settings: Homo sapiens;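 also: GCT cell line proliferation inhibition, read out with a cell viability assay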
Description: SANGER: Inhibition of human GCT cell growth in a cell viability assay.

[12] = system: HCC1395; type: functional, cell-based; settings: Homo sapiens;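 also: growth inhibition of HCC1395 cells, read out by a cell viability assay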
Description: SANGER: Inhibition of human HCC1395 cell growth in a cell viability assay.

[13] = system: HCC1599; type: functional, cell-based; settings: Homo sapiens;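 also: growth inhibition of HCC1599 cells, read out in a cell viability assay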
Description: SANGER: Inhibition of human HCC1599 cell growth in a cell viability assay.

[14] = system: HCC1806; type: functional, cell-based; settings: Homo sapiens;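 also: growth inhibition of the cancer cell line, determined with a cell viability assay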
Description: SANGER: Inhibition of human HCC1806 cell growth in a cell viability assay.

[15] = system: HCC1937; type: functional, cell-based; settings: Homo sapiens;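 also: growth inhibition measured with a cell viability read-out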
Description: SANGER: Inhibition of human HCC1937 cell growth in a cell viability assay.

[16] = system: HGC-27; type: functional, cell-based; settings: Homo sapiens;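 also: growth inhibition of human HGC-27 cells, read out in a cell viability assay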
Description: SANGER: Inhibition of human HGC-27 cell growth in a cell viability assay.

[17] = system: HT-1080; type: functional, cell-based; settings: Homo sapiens
Description: SANGER: Inhibition of human HT-1080 cell growth in a cell viability assay.

[18] = system: HT1197; type: functional, cell-based, HT-1197; settings: Homo sapiens
Description: SANGER: Inhibition of human HT-1197 cell growth in a cell viability assay.

[19] = system: Hs-578T; type: functional, cell-based; settings: Homo sapiens
Description: SANGER: Inhibition of human Hs-578-T cell growth in a cell viability assay.

[20] = system: IST-SL2; type: functional, cell-based; settings: Homo sapiens;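 also: growth inhibition of human IST-SL2 cells, read out by a cell viability assay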
Description: SANGER: Inhibition of human IST-SL2 cell growth in a cell viability assay.

[21] = system: KYSE-180; type: functional, cell-based; settings: Homo sapiens;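 also: growth inhibition of KYSE-180 cells, read out with a cell viability assay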
Description: SANGER: Inhibition of human KYSE-180 cell growth in a cell viability assay.

[22] = system: KYSE-70 cell line; type: functional, cell-based; settings: Homo sapiens;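 also: cell viability assay read-out, with IC50 expressing suppression of KYSE-70 cell growth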
Description: SANGER: Inhibition of human KYSE-70 cell growth in a cell viability assay.

[23] = system: LB647-SCLC; type: functional, cell-based; settings: Homo sapiens;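 also: cell growth inhibition, read out by a viability assay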
Description: SANGER: Inhibition of human LB647-SCLC cell growth in a cell viability assay.

[24] = system: LCLC-103H cell line; type: functional, cell-based; settings: Homo sapiens
Description: SANGER: Inhibition of human LCLC-103H cell growth in a cell viability assay.

[25] = system: LCLC-97TM1; type: functional, cell-based; settings: Homo sapiens;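 also: cell viability assay measuring growth inhibition of human LCLC-97TM1 cells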
Description: SANGER: Inhibition of human LCLC-97TM1 cell growth in a cell viability assay.

[26] = system: LU-165; type: functional, cell-based; settings: Homo sapiens
Description: SANGER: Inhibition of human LU-165 cell growth in a cell viability assay.

[27] = system: LoVo; type: functional, cell-based; settings: Homo sapiens;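 also: growth inhibition of human LoVo cells, read out with a cell viability assay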
Description: SANGER: Inhibition of human LoVo cell growth in a cell viability assay.

[28] = system: MC-CAR; type: functional, cell-based; settings: Homo sapiens;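 also: growth inhibition of the human MC-CAR cell line, read out by a cell viability assay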
Description: SANGER: Inhibition of human MC-CAR cell growth in a cell viability assay.

[29] = system: MDA-MB-157; type: functional, cell-based; settings: Homo sapiens
Description: SANGER: Inhibition of human MDA-MB-157 cell growth in a cell viability assay.

[30] = system: MHH-ES-1; type: functional, cell-based; settings: Homo sapiens;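 also: cell growth inhibition measured by a cell viability assay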
Description: SANGER: Inhibition of human MHH-ES-1 cell growth in a cell viability assay.

[31] = system: MKN-45; type: functional, cell-based; settings: Homo sapiens;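 also: growth inhibition of human MKN-45 cells, measured with a cell viability assay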
Description: SANGER: Inhibition of human MKN45 cell growth in a cell viability assay.

[32] = system: MKN-7; type: functional, cell-based; settings: Homo sapiens;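 also: growth inhibition of MKN-7 cells, read out with a cell viability assay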
Description: SANGER: Inhibition of human MKN7 cell growth in a cell viability assay.

[33] = system: MONO-MAC-6; type: functional, cell-based; settings: Homo sapiens;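 also: cell viability assay measuring growth inhibition of human MONO-MAC-6 cells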
Description: SANGER: Inhibition of human MONO-MAC-6 cell growth in a cell viability assay.

[34] = system: MeWo; type: functional, cell-based; settings: Homo sapiens;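 also: growth inhibition of MeWo cells, determined by a cell viability readout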
Description: SANGER: Inhibition of human Mewo cell growth in a cell viability assay.

[35] = system: NB12; type: functional, cell-based; settings: Homo sapiens;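 also: growth inhibition of human NB12 cells, read out by a cell viability assay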
Description: SANGER: Inhibition of human NB12 cell growth in a cell viability assay.

[36] = system: NCI-H1563; type: functional, cell-based; settings: Homo sapiens;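 also: growth inhibition of human NCI-H1563 cells, read out with a cell viability assay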
Description: SANGER: Inhibition of human NCI-H1563 cell growth in a cell viability assay.

[37] = system: NCI-H2171; type: functional, cell-based; settings: Homo sapiens;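 also: growth inhibition of human NCI-H2171 cells, read out by a cell viability assay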
Description: SANGER: Inhibition of human NCI-H2171 cell growth in a cell viability assay.

[38] = system: NCI-H2228; type: functional, cell-based; settings: Homo sapiens;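 also: growth inhibition of human NCI-H2228 cells, read out by a cell viability assay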
Description: SANGER: Inhibition of human NCI-H2228 cell growth in a cell viability assay.

[39] = system: NCI-H322M; type: functional, cell-based; settings: Homo sapiens;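 also: cell viability assay measuring inhibition of growth of human NCI-H322M cells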
Description: SANGER: Inhibition of human NCI-H322M cell growth in a cell viability assay.

[40] = system: NCI-H345; type: functional, cell-based; settings: Homo sapiens;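 also: growth inhibition of NCI-H345 cells measured with a cell viability assay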
Description: SANGER: Inhibition of human NCI-H345 cell growth in a cell viability assay.

[41] = system: NCI-H520; type: functional, cell-based; settings: Homo sapiens;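 also: growth inhibition of NCI-H520 cells, measured by a cell viability assay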
Description: SANGER: Inhibition of human NCI-H520 cell growth in a cell viability assay.

[42] = system: NY; type: functional, cell-based; settings: Homo sapiens
Description: SANGER: Inhibition of human NY cell growth in a cell viability assay.

[43] = system: OE19; type: functional, cell-based; settings: Homo sapiens;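 also: growth inhibition of OE19 cells, measured through a cell viability read-out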
Description: SANGER: Inhibition of human OE19 cell growth in a cell viability assay.

[44] = system: OE33; type: functional, cell-based; settings: Homo sapiens;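 also: growth inhibition of human OE33 cells, measured by a cell viability assay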
Description: SANGER: Inhibition of human OE33 cell growth in a cell viability assay.

[45] = system: PANC-08-13; type: functional, cell-based; settings: Homo sapiens;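 also: cell growth inhibition, measured with a cell viability assay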
Description: SANGER: Inhibition of human PANC-08-13 cell growth in a cell viability assay.

[46] = system: Panc1005; type: functional, cell-based; settings: Homo sapiens;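 also: growth inhibition of human PANC-10-05 cells, measured by a cell viability assay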
Description: SANGER: Inhibition of human PANC-10-05 cell growth in a cell viability assay.

[47] = system: RO82-W-1; type: functional, cell-based; settings: Homo sapiens;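 also: growth inhibition of human RO82-W-1 cells, measured with a cell viability assay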
Description: SANGER: Inhibition of human RO82-W-1 cell growth in a cell viability assay.

[48] = system: SCC-25; type: functional, cell-based; settings: Homo sapiens;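 also: growth inhibition of SCC-25 cells, measured with a cell viability assay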
Description: SANGER: Inhibition of human SCC-25 cell growth in a cell viability assay.

[49] = system: SK-MES-1; type: functional, cell-based; settings: Homo sapiens;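 also: growth inhibition of human SK-MES-1 cells, read out with a cell viability assay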
Description: SANGER: Inhibition of human SK-MES-1 cell growth in a cell viability assay.

[50] = system: SW1783; type: functional, cell-based; settings: Homo sapiens;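 also: cell growth inhibition measured with a viability assay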
Description: SANGER: Inhibition of human SW1783 cell growth in a cell viability assay.

[51] = system: T-24; type: functional, cell-based; settings: Homo sapiens;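 also: growth inhibition of T-24 cells, read out with a cell viability assay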
Description: SANGER: Inhibition of human T-24 cell growth in a cell viability assay.

[52] = system: CWR22R; type: functional, cell-based; settings: Homo sapiens, 22Rv1;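 also: growth inhibition of 22Rv1 cells, read out with a cell viability assay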
Description: SANGER: Inhibition of human 22RV1 cell growth in a cell viability assay.

[53] = system: A204; type: functional, cell-based; settings: Homo sapiens;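 also: growth inhibition of human A204 cells, read out with a cell viability assay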
Description: SANGER: Inhibition of human A204 cell growth in a cell viability assay.

[54] = system: ABC-1; type: functional, cell-based; settings: Homo sapiens;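 also: growth inhibition of human ABC-1 cells, read out by a cell viability assay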
Description: SANGER: Inhibition of human ABC-1 cell growth in a cell viability assay.

[55] = system: BFTC-905; type: functional, cell-based; settings: Homo sapiens
Description: SANGER: Inhibition of human BFTC-905 cell growth in a cell viability assay.

[56] = system: BPH-1; type: functional, cell-based; settings: Homo sapiens;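 also: cell viability assay measuring growth inhibition of human BPH-1 cells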
Description: SANGER: Inhibition of human BPH-1 cell growth in a cell viability assay.

[57] = system: CAL-148; type: functional, cell-based; settings: Homo sapiens
Description: SANGER: Inhibition of human CAL-148 cell growth in a cell viability assay.

[58] = system: CAL-27; type: functional, cell-based; settings: Homo sapiens;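 also: Viability-based readout, IC50 reflecting inhibition of CAL-27 cell growth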
Description: SANGER: Inhibition of human CAL-27 cell growth in a cell viability assay.

[59] = system: UACC-62; type: functional, cell-based; settings: Homo sapiens;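 also: growth inhibition of human UACC-62 cells, read out by a cell viability assay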
Description: SANGER: Inhibition of human UACC-62 cell growth in a cell viability assay.

[60] = system: UMUC3; type: functional, cell-based; settings: Homo sapiens;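 also: growth inhibition of human UM-UC-3 cells, read out with a cell viability assay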
Description: SANGER: Inhibition of human UM-UC-3 cell growth in a cell viability assay.

[61] = system: UMC-11; type: functional, cell-based; settings: Homo sapiens;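 also: growth inhibition of UMC-11 cells, read out with a cell viability assay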
Description: SANGER: Inhibition of human UMC-11 cell growth in a cell viability assay.

[62] = system: YT; type: functional, cell-based; settings: Homo sapiens
Description: SANGER: Inhibition of human YT cell growth in a cell viability assay.

Compound: O=c1[nH]c2ccccc2n1C1CCN(Cc2ccc(-c3nc4cc5[nH]cnc5cc4nc3-c3ccccc3)cc2)CC1
- IC50 [1]: > 2.56 µM
- IC50 [2]: > 2.56 µM
- IC50 [3]: > 2.56 µM
- IC50 [4]: > 2.56 µM
- IC50 [5]: > 2.56 µM
- IC50 [6]: > 2.56 µM
- IC50 [7]: > 2.56 µM
- IC50 [8]: > 2.56 µM
- IC50 [9]: > 2.56 µM
- IC50 [10]: > 2.56 µM
- IC50 [11]: > 2.56 µM
- IC50 [12]: > 2.56 µM
- IC50 [13]: > 2.56 µM
- IC50 [14]: > 2.56 µM
- IC50 [15]: > 2.56 µM
- IC50 [16]: 0.15 µM
- IC50 [17]: > 2.56 µM
- IC50 [18]: > 2.56 µM
- IC50 [19]: > 2.56 µM
- IC50 [20]: > 2.56 µM
- IC50 [21]: > 2.56 µM
- IC50 [22]: > 2.56 µM
- IC50 [23]: > 2.56 µM
- IC50 [24]: > 2.56 µM
- IC50 [25]: 2.3 µM
- IC50 [26]: > 2.56 µM
- IC50 [27]: > 2.56 µM
- IC50 [28]: > 2.56 µM
- IC50 [29]: > 2.56 µM
- IC50 [30]: > 2.56 µM
- IC50 [31]: > 2.56 µM
- IC50 [32]: > 2.56 µM
- IC50 [33]: > 2.56 µM
- IC50 [34]: > 2.56 µM
- IC50 [35]: > 2.56 µM
- IC50 [36]: 0.542 µM
- IC50 [37]: > 2.56 µM
- IC50 [38]: 2.29 µM
- IC50 [39]: > 2.56 µM
- IC50 [40]: > 2.56 µM
- IC50 [41]: 1.13 µM
- IC50 [42]: > 2.56 µM
- IC50 [43]: > 2.56 µM
- IC50 [44]: 1.89 µM
- IC50 [45]: > 2.56 µM
- IC50 [46]: > 2.56 µM
- IC50 [47]: > 2.56 µM
- IC50 [48]: > 2.56 µM
- IC50 [49]: 2.1 µM
- IC50 [50]: > 2.56 µM
- IC50 [51]: > 2.56 µM
- IC50 [52]: > 2.56 µM
- IC50 [53]: > 2.56 µM
- IC50 [54]: > 2.56 µM
- IC50 [55]: > 2.56 µM
- IC50 [56]: > 2.56 µM
- IC50 [57]: > 2.56 µM
- IC50 [58]: > 2.56 µM
- IC50 [59]: > 2.56 µM
- IC50 [60]: > 2.56 µM
- IC50 [61]: > 2.56 µM
- IC50 [62]: > 2.56 µM
